Laboratory results: PubChem BioAssay AID2060885 (Molecular Pharmacology Branch, DTP, NCI, 2025)

Test system: NCI-H23 complex spheroids with HUVEC/MSC, viability
Assay: Anticancer human tumor NCI-H23 cell line growth inhibition [RAS];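 note: spheroids exposed to compound for 7 days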;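 for viability, T/C: 100% = DMSO vehicle control viability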
Conditions: for IC50: curve of first compound; for viability, T/C: stronger effect = lower value
From the text: RAS pathway inhibitors in Combinations in Complex Spheroids
A high-throughput screen of multi-cell type tumor spheroids was designed to identify active combinations of RAS pathway inhibitors and targeted small molecules. Complex spheroids include a stromal component modeled by human endothelial cells (HUVEC) and fibroblasts modeled by human mesenchymal stem cells (MSCs). The concentration ranges selected for each drug and investigational agent were based upon clinically achievable concentrations if the clinical Cmax of the agent was known.
Compounds. The drugs and investigational agents: abemaciclib (NSC768073), cobimetinib (NSC768068), divarasib (GDC6063, NSC841802), docetaxel (NSC628503), GDC-1971 (RLY-1971, NSC841576), gemcitabine (NSC613327), inavolisib (NSC800729), ipatasertib (NSC767898), KB-0742 (NSC834161), MRTX-1133 (NSC836407), osimertinib (NSC779217), RMC-4630 (NSC839698), RMC-6236 (NSC851965), RMC-6291 (NSC852671), Ro-3306 (NSC812927), sapanisertib (NSC764658), SN-38 (NSC673596), staurosporine (NSC755774), SY5609 (NSC837396), and tovorafenib (DAY101, NSC766906), were obtained from the National Cancer Institute (NCI) Developmental Therapeutics Program Chemical Repository. The FDA-approved anticancer drug set is available from the NCI Developmental Therapeutics Program. […] The stock solutions were prepared in dimethyl sulfoxide (DMSO, Sigma-Aldrich, St. Louis, MO, cat. D2650) at 800-fold the tested concentration and stored at -70 degrees C prior to their use. All drugs and investigational agents were tested over a range starting from a high concentration at or near the clinical Cmax and decreasing in half-log increments. If the clinical Cmax for an agent had not been determined, the highest concentration tested was 10 microM.
Cell Culture. All cells were maintained in an incubator at 37 degrees C and 5% CO2 with 95% humidity. The PDC lines were cultured according to standard operating procedures established by the NCI PDMR. All PDCs were thawed and cultured in Matrigel-coated flasks prepared with a working solution of 1X Ham's F-12 nutrient mix, without supplementation (Invitrogen, Waltham, MA, cat. 11765054), 100 U/mL penicillin-streptomycin (Invitrogen, cat. 15140122), and 2.5% Matrigel (Corning Inc., Corning, NY, cat. 354248) for the first three passages. The 362531-283-R-J2-PDC and 782815-120-R-J1-PDC lines were cultured in 6C/Colon 1B media, which includes advanced DMEM/F-12 (Thermo Fisher Scientific, cat. 12634028), 10 mM HEPES (Thermo Fisher Scientific, cat. 15630080), 1X GlutaMAX supplement (Thermo Fisher Scientific, cat. 35050061), 0.1 mg/mL primocin (InvivoGen, San Diego, CA, cat. ant-pm-2), 10% defined fetal bovine serum, heat inactivated (HyClone Laboratories Inc., Logan, UT, cat. SH30070.03HI), 50% L-WRN conditioned media (ATCC, cat. CRL-3276), 1.25 mM N-Acetyl-L-cysteine (Sigma-Aldrich, cat. A9165), 10 mM nicotinamide (Sigma-Aldrich, cat. N0636), 1X B-27 supplement (Thermo Fisher Scientific, cat. 17504044), 1X N-2 supplement (Thermo Fisher Scientific, cat. 17502048), 50 ng/mL human EGF (Thermo Fisher Scientific, cat. PHG0311), and 10 microM Y-27632 dihydrochloride (Tocris Bioscience, cat. 1254). The K12877-001-R-J1-PDC line was cultured in 6I media, which includes all 6C/Colon 1B media plus 10 ng/mL human FGF-10 (PeproTech, cat. 100-26), 1 ng/mL human FGF-2 (PeproTech, cat. 100-18B), 1 µM prostaglandin E2 (Tocris Bioscience, cat. 2296), […] hydrocortisone (Sigma-Aldrich, cat. H4001), and […] bovine insulin (Sigma-Aldrich, cat. I6634). The K86415-001-R-J1-PDC line was cultured in 6D media, which includes all 6C/Colon 1B media components minus the L-WRN conditioned media. The 485176-168-R4-J1-PDC was cultured in PANC media, which includes all 6C/Colon 1B media plus 100 ng/mL human FGF-10 (PeproTech, cat. 100-26), 500 nM SB-431542 (Selleckchem, cat. S1067), and 10 nM gastrin (Tocris Bioscience, cat. 3006). […]

Compound: C[C@@H](NC(=O)c1ncnc(N)c1Cl)c1ncc(C(=O)Nc2cc(C(F)(F)F)c(Cl)cn2)s1 + C#Cc1c(F)ccc2cc(O)cc(-c3ncc4c(N5CC6CCC(C5)N6)nc(OCC56CCCN5CC(F)C6)nc4c3F)c12
- IC50 (second compound 0.0316 µM): > 10 µM
- IC50 (second compound 0.1 µM): > 10 µM
- IC50 (second compound 0.316 µM): > 10 µM
- IC50 (second compound 1 µM): > 10 µM
- IC50 (second compound 3.16 µM): > 10 µM
- IC50 (second compound 10 µM): < 0.0316 µM
- viability, T/C (second compound 0.0316 µM, first compound 0.0316 µM): 110%
- viability, T/C (second compound 0.0316 µM, first compound 0.1 µM): 112%
- viability, T/C (second compound 0.0316 µM, first compound 0.316 µM): 98.9%
- viability, T/C (second compound 0.0316 µM, first compound 1 µM): 99.9%
- viability, T/C (second compound 0.0316 µM, first compound 3.16 µM): 92.3%
- viability, T/C (second compound 0.0316 µM, first compound 10 µM): 66.5%
- viability, T/C (second compound 0.1 µM, first compound 0.0316 µM): 103%
- viability, T/C (second compound 0.1 µM, first compound 0.1 µM): 110%
- viability, T/C (second compound 0.1 µM, first compound 0.316 µM): 105%
- viability, T/C (second compound 0.1 µM, first compound 1 µM): 99.5%
- viability, T/C (second compound 0.1 µM, first compound 3.16 µM): 91.8%
- viability, T/C (second compound 0.1 µM, first compound 10 µM): 66.2%
- viability, T/C (second compound 0.316 µM, first compound 0.0316 µM): 104%
- viability, T/C (second compound 0.316 µM, first compound 0.1 µM): 110%
- viability, T/C (second compound 0.316 µM, first compound 0.316 µM): 106%
- viability, T/C (second compound 0.316 µM, first compound 1 µM): 99.4%
- viability, T/C (second compound 0.316 µM, first compound 3.16 µM): 85.6%
- viability, T/C (second compound 0.316 µM, first compound 10 µM): 74.4%
- viability, T/C (second compound 1 µM, first compound 0.0316 µM): 90.3%
- viability, T/C (second compound 1 µM, first compound 0.1 µM): 96.2%
- viability, T/C (second compound 1 µM, first compound 0.316 µM): 93.1%
- viability, T/C (second compound 1 µM, first compound 1 µM): 86.1%
- viability, T/C (second compound 1 µM, first compound 3.16 µM): 83.3%
- viability, T/C (second compound 1 µM, first compound 10 µM): 60.7%
- viability, T/C (second compound 3.16 µM, first compound 0.0316 µM): 67.2%
- viability, T/C (second compound 3.16 µM, first compound 0.1 µM): 69.3%
- viability, T/C (second compound 3.16 µM, first compound 0.316 µM): 60.8%
- viability, T/C (second compound 3.16 µM, first compound 1 µM): 56.9%
- viability, T/C (second compound 3.16 µM, first compound 3.16 µM): 53.6%
- viability, T/C (second compound 3.16 µM, first compound 10 µM): 52.5%
- viability, T/C (second compound 10 µM, first compound 0.0316 µM): 38.7%
- viability, T/C (second compound 10 µM, first compound 0.1 µM): 49.5%
- viability, T/C (second compound 10 µM, first compound 0.316 µM): 46.3%
- viability, T/C (second compound 10 µM, first compound 1 µM): 41.1%
- viability, T/C (second compound 10 µM, first compound 3.16 µM): 48.1%
- viability, T/C (second compound 10 µM, first compound 10 µM): 38.3%
